Assays:
[1] = target: T1, EHMT1 (Homo sapiens, UniProt Q9H9B1); assay: EHMT1 enzyme assay on peptide substrate (EHMT1 PEP); type: biochemical; conditions: Table III; read-out: EHMT1 PEP (IC50 μM)
T1 sequence (Q9H9B1 1-1298): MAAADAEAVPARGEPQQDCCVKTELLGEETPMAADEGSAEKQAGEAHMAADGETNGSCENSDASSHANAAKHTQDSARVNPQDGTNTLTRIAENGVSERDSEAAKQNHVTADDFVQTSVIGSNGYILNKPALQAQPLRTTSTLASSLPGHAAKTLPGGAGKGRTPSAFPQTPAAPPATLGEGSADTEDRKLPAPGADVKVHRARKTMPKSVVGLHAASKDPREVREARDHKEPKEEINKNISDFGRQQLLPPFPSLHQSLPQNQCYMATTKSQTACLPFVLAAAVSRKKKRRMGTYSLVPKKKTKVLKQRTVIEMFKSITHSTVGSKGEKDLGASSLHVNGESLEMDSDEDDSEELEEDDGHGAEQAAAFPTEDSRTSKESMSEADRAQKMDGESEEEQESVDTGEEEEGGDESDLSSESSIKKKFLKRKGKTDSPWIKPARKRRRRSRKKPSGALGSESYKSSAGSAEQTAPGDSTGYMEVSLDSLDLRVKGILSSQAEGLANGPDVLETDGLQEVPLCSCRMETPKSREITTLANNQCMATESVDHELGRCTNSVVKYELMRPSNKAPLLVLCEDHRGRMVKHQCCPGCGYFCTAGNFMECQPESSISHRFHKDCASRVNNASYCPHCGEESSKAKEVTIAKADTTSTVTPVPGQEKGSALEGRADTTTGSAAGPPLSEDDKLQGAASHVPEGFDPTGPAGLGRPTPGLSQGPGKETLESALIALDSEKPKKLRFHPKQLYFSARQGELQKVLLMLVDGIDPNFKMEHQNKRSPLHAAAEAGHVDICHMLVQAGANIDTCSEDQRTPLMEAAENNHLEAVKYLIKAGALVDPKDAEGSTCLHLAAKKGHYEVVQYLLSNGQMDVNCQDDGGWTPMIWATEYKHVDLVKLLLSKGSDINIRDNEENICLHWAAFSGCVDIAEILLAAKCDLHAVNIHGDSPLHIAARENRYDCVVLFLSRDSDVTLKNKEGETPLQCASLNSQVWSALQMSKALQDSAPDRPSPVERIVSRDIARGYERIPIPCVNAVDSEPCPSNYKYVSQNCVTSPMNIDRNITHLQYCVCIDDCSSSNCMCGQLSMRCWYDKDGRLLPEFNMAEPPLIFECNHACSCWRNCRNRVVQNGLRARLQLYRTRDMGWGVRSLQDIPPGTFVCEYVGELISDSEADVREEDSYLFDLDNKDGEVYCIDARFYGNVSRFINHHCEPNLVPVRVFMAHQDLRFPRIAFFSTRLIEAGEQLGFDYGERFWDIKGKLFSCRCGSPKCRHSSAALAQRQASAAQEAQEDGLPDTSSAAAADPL

[2] = target: T2, human EHMT2 913-1193 (Homo sapiens, UniProt Q96KQ7); assay: EHMT2 enzyme assay on histone peptide substrate (EHMT2 PEP); type: biochemical; conditions: Table III; read-out: EHMT2 PEP (IC50 μM)
T2 construct: recombinant purified human EHMT2 913-1193, Viva; purchased Viva
T2 sequence (Q96KQ7 913-1193): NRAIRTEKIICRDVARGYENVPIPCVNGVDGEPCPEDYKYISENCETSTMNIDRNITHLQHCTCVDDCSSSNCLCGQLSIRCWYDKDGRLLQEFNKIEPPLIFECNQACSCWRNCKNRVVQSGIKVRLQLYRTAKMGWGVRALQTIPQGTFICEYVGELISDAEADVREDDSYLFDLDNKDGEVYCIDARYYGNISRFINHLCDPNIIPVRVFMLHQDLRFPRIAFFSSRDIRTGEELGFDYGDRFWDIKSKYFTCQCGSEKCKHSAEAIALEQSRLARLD
Outline: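 Compounds (10-point, 3-fold dilutions, top 50 μM final, 2% DMSO) preincubated 30 min with 0.031 nM EHMT2 in 20 mM Bicine pH 7.5, 0.002% Tween 20, 0.005% gelatin, 1 mM TCEP. Biotinylated histone peptide methylated with ^3H-SAM 60 min at room temperature. Quenched with unlabeled SAM; product captured on streptavidin Flashplate, scintillation counted.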

| IC50 [1] [µM] | IC50 [2] [µM] | Structure (SMILES) |
| --- | --- | --- |
| > 10 | 1 to 10 | CNc1cc(N2CCCC2)nc(Nc2ccc(OC)c(OCCCN3CCCC3)c2)n1 [Compound 450, N^2-(4-methoxy-3-(3-(pyrrolidin-1-yl)propoxy)phenyl)-N^4-methyl-6-(pyrrolidin-1-yl)pyrimidine-2,4-diamine] |
| < 0.1 | 0.1 to 1 | COc1ccc(Nc2nc(C)cc(NCC3CCOCC3)n2)cc1OCC1CCN(C)C1 (stereo not drawn) [Compound 451, N^2-(4-methoxy-3-((1-methylpyrrolidin-3-yl)methoxy)phenyl)-6-methyl-N^4-((tetrahydro-2H-pyran-4-yl)methyl)pyrimidine-2,4-diamine] |
| 1 to 10 | > 10 | CNc1cc(C)nc(Nc2ccc(OC)c(OCC3CCCO3)c2)n1 (stereo not drawn) [Compound 452, N^2-(4-methoxy-3-((tetrahydrofuran-2-yl)methoxy)phenyl)-N^4,6-dimethylpyrimidine-2,4-diamine] |

From US20210198277A1, “AMINE-SUBSTITUTED ARYL OR HETEROARYL COMPOUNDS” (Epizyme, Inc., priority 2016, published 2021)
